Experimental findings from ChEMBL document CHEMBL3259709, “Quinoline Derivatives as 5-HT6 Receptor PET Ligands” (ACS Med Chem Lett, 2014) are described below.

The pKi is −log10 of the Ki, conventionally taken in molar units. A high value points to a small Ki.

pKi: −log10 of the molar value.

The subject of data set [1] is Nucleic Acid. As to the kind of experiment: Ratio of drug level from hippocampus to cerebellum in rat at 0.05 mg/kg, iv after 5 mins. The class given is ADME, organism-based. Also noted: dose 0.05 mg/kg, route intravenous. Particulars: in vivo.
Data set [2] concerns Nucleic Acid. Kind of data set: Ratio of drug level from hippocampus to cerebellum in rat at 0.05 mg/kg, iv after 40 mins. Particulars: in vivo. Set-up: dose 0.05 mg/kg, route intravenous. The class given is ADME, organism-based.
In data set [3] the test system is Nucleic Acid. Kind of data set: Ratio of drug level from striatum to cerebellum in rat brain at 0.05 mg/kg, iv after 5 mins. The class given is ADME, organism-based. Also noted: dose 0.05 mg/kg, route intravenous. Particulars: in vivo.
The test system of data set [4] is Nucleic Acid. As to the kind of experiment: Ratio of drug level from striatum to cerebellum in rat brain at 0.05 mg/kg, iv after 40 mins. It counts as ADME, organism-based. Also noted: dose 0.05 mg/kg, route intravenous. Particulars: in vivo.
Data set [5] has as its system Nucleic Acid. As to the kind of experiment: Ratio of drug level from cortex to cerebellum in rat at 0.05 mg/kg, iv after 5 mins. Particulars: in vivo. The class given is ADME, organism-based. Also noted: dose 0.05 mg/kg, route intravenous.
The test system of data set [6] is Nucleic Acid. Kind of data set: Ratio of drug level from cortex to cerebellum in rat at 0.05 mg/kg, iv after 40 mins. Particulars: in vivo. The class given is ADME, organism-based. Set-up: dose 0.05 mg/kg, route intravenous.
Data set [7] concerns the target 5-hydroxytryptamine receptor 2A (Homo sapiens, UniProt P28223). Kind of data set: Displacement of [125I]-R-O-DOI from human 5-HT2A receptor expressed in CHO-K1 cells by liquid scintillation spectrometry. The class given is cell-based.
Data set [8] in a line: Plasma concentration in rat at 0.05 mg/kg, iv after 5 mins. The class given is ADME, organism-based. Set-up: dose 0.05 mg/kg, route intravenous.
Data set [9] is described as follows: Plasma concentration in rat at 0.05 mg/kg, iv after 3 mins. The class given is ADME, organism-based. Also noted: dose 0.05 mg/kg, route intravenous.
Data set [10] is described as follows: Ratio of free drug level from brain to plasma concentration in rat at 0.05 mg/kg, iv after 5 mins. It counts as ADME, organism-based. Set-up: dose 0.05 mg/kg, route intravenous. Particulars: read-out: BPR.
Data set [11] can be described thus: Ratio of free drug level from brain to plasma concentration in rat at 0.05 mg/kg, iv after 3 mins. It counts as ADME, organism-based. Particulars: read-out: BPR. Also noted: dose 0.05 mg/kg, route intravenous.

Sequence of 5-hydroxytryptamine receptor 2A (P28223 whole entry): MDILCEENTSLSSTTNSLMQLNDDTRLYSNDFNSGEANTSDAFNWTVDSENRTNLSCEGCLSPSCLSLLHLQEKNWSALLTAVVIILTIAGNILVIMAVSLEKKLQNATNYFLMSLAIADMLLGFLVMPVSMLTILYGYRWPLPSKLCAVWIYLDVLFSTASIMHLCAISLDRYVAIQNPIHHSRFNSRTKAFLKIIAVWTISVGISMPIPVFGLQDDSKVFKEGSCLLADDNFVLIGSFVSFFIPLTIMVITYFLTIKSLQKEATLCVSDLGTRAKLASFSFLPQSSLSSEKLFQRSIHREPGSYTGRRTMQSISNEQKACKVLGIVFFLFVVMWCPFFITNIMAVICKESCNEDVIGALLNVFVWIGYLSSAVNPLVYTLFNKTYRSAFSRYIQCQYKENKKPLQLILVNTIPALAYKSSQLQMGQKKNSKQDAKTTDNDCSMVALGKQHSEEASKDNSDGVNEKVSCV

With `[3H]C([3H])([3H])N1CCC(c2cccc3cc(S(=O)(=O)c4ccccn4)cnc23)CC1`, the Ratio is on record as 1.06 with Nucleic Acid [1]; 1.07 in the data set on Nucleic Acid [2]; 0.81 in the data set with Nucleic Acid [3]; 1.31 in the data set on Nucleic Acid [4]; 0.9 in the data set on Nucleic Acid [5]; 1.2 with Nucleic Acid [6].

Molecule `CN1CCN(c2cccc3cc(S(=O)(=O)c4cccc(F)c4)cnc23)CC1` had a pKi in [7] of 9.41.

With `CN1CCC(c2cccc3cc(S(=O)(=O)c4ccccn4)cnc23)CC1`, the concentration at 5 min in [8] is 83.5 ng/mL. Besides, the concentration at 0.05 h in data set [9] worked out at 104 ng/mL. The Kp uu at 5 min in [10] was found to be 0.28. The Kp uu at 0.05 h in [11] is 0.21.
